Each structure is given as a SMILES string.

This is an account of results in US20210379078A1, “Killing Senescent Cells And Treating Senescence-Associated Conditions Using A Bcl Inhibitor And An Mcl-1 Inhibitor” (Unity Biotechnology, Inc., priority 2018, published 2021).

The target of one data set is T1, BIM-Bcl-xL interactions (Mus musculus, UniProt Q64373).
T1 construct: Lysates for co-IP experiments were prepared from: (a) lungs from mice; endogenous in cells; host or cells: mouse lung tissue (oral aspiration dosing) and mouse bronchiotracheal epithelial (MBE) cells
As to the kind of experiment: Target engagement co-immunoprecipitation with anti-BIM, western blot for Bcl-xL. Type of data set: cell-based. For orientation: In western blotting, separated proteins are transferred to a membrane and probed.

For the next data set, the system named is Mcl-1 binding to BIM. As to the kind of experiment: Target engagement co-immunoprecipitation with anti-BIM, western blot for Mcl-1. The data set is classed as cell-based. The note with it: OA-dosed mouse lungs (8 hours) and MBE cells (4 hours). An excerpt:
A target engagement assay was developed to determine Bcl-xL and Mcl-1's respective interaction with BIM both in vivo in mice, or cells in culture, in order to predict senolysis. The respective binding pockets of Bcl-xL and Mcl-1 proteins under normal conditions sequestrate pro-apoptotic proteins, such as BIM. Co-immunoprecipitation (co-IP) was employed to study protein-protein interactions in order to determine if candidate senolytics can effectively displace Bcl-xL or Mcl-1 from BIM protein.
Lysates for co-IP experiments were prepared from: (a) lungs from mice that had been dosed for 8 hours by oral aspiration (OA) with either a candidate senolytic Bcl (Compound 1) or Mcl-1 inhibitor (S-63845), or a control vehicle treatment; or (b) mouse bronchiotrachael epithelial (MBE) cells, dosed for 4 hours with the same Bcl or Mcl-1 inhibitor, using a non-denaturing lysis buffer: PBS pH 7.4, 2% CHAPS, supplemented with a protease inhibitor cocktail (Roche®)). For every 0.25 gram of tissue 1 mL of lysis buffer was added to the sample, and next tissue was homogenized using a Precellys 24 (Bertin Technologies®; 3 cycles of 20 s and 20 s pause). Homogenates were cleared by centrifugation at 13000 g at 4° C. for 10 min, and the supernatant lysate was transferred to new tubes, aliquoted, flash-frozen using liquid nitrogen, and stored at −80° C. […]

For data set [1] the following is noted: cited from earlier work.

T1 sequence (Q64373 whole entry): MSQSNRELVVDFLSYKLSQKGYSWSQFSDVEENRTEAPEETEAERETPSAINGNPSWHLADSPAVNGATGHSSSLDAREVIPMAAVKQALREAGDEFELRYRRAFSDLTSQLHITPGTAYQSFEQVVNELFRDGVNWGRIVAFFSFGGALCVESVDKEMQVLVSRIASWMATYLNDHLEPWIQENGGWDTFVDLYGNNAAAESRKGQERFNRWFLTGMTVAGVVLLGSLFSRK
Experimental for BIM-Bcl-xL interactions: Immunoprecipitations were performed using rabbit monoclonal anti-BIM (C34C5) antibodies (Cell Signaling Technology®) bound by Protein A-coated magnetic beads (Life Technologies®). 100 ul lysate was incubated with 10 μL of magnetic beads (pre-coated with 2 μg of antibody) for 1 hour at 4° C. in a Thermal Mixer at 1300 rpm (VWR®). After immunocapture, samples were washed three times with cold lysis buffer and eluted from the beads using non-reducing NuPAGE LDS Sample Buffer® (Life Technologies®). […]

Consider `Cc1c(C(=O)O)c(-c2cccc(N3CCN(c4ccc(NS(=O)(=O)c5ccc(N[C@H](CCN6CCC(OP(=O)(O)O)CC6)CSc6ccccc6)c(S(=O)(=O)C(F)(F)F)c5)cc4)CC3)c2)c(-c2ccc(Cl)cc2)n1C(C)C` [Compound 1], for which the “BIM-Bcl-xL interactions (co-IP)” value at BIM-Bcl-xL interactions (OA-dosed mouse lungs (8 hours) and MBE cells (4 hours)) is recorded as “blocked”. Moreover, in the data set with Mcl-1 binding to BIM, the “Mcl-1 binding to BIM (co-IP)” value is reported as “compensatory Mcl-1 binding to BIM was observed”.

As to `CN(C)CC[C@H](CSc1ccccc1)Nc1ccc(S(=O)(=O)NC(=O)c2ccc(N3CCN(Cc4ccccc4-c4ccc(Cl)cc4)CC3)cc2)cc1[N+](=O)[O-]` [ABT-737], in data set [1], the “dose-limiting toxicity in human patients” value is on record as “dose-limiting thrombocytopenia”.

On to `Cc1c(-c2c(-c3ccc(F)o3)sc3ncnc(O[C@H](Cc4ccccc4OCc4ccnn4CC(F)(F)F)C(=O)O)c23)ccc(OCCN2CCN(C)CC2)c1Cl` [Compound S-63845], for which the “Bcl-xL binding to BIM when Mcl-1 is inhibited (co-IP)” value at BIM-Bcl-xL interactions (S-63845 at 1 uM and 10 uM) was “Bcl-xL appeared to compensate for BIM binding”.
